pIC50: −log10 of the molar value. Each block holds one compound with its values, some of them ahead of it.
System: 349418-098-R-PDC complex spheroid viability
Assay: Anticancer human tumor 349418-098-R-PDC patient-derived lung adenocarcinoma cell line growth inhibition [RAS]
Details: for pIC50: curve of first compound; for viability, T/C: stronger effect = lower value
Description: RAS pathway inhibitors in Combinations in Complex Spheroids
A high-throughput screen of multi-cell type tumor spheroids was designed to identify active combinations of RAS pathway inhibitors and targeted small molecules. Complex spheroids include a stromal component modeled by human endothelial cells (HUVEC) and fibroblasts modeled by human mesenchymal stem cells (MSCs). The concentration ranges selected for each drug and investigational agent were based upon clinically achievable concentrations if the clinical Cmax of the agent was known.
Compounds. The drugs and investigational agents: abemaciclib (NSC768073), cobimetinib (NSC768068), divarasib (GDC6063, NSC841802), docetaxel (NSC628503), GDC-1971 (RLY-1971, NSC841576), gemcitabine (NSC613327), inavolisib (NSC800729), ipatasertib (NSC767898), KB-0742 (NSC834161), MRTX-1133 (NSC836407), osimertinib (NSC779217), RMC-4630 (NSC839698), RMC-6236 (NSC851965), RMC-6291 (NSC852671), Ro-3306 (NSC812927), sapanisertib (NSC764658), SN-38 (NSC673596), staurosporine (NSC755774), SY5609 (NSC837396), and tovorafenib (DAY101, NSC766906), were obtained from the National Cancer Institute (NCI) Developmental Therapeutics Program Chemical Repository. The FDA-approved anticancer drug set is available from the NCI Developmental Therapeutics Program. […] The stock solutions were prepared in dimethyl sulfoxide (DMSO, Sigma-Aldrich, St. Louis, MO, cat. D2650) at 800-fold the tested concentration and stored at -70 degrees C prior to their use. All drugs and investigational agents were tested over a range starting from a high concentration at or near the clinical Cmax and decreasing in half-log increments. If the clinical Cmax for an agent had not been determined, the highest concentration tested was 10 microM.
Cell Culture. All cells were maintained in an incubator at 37 degrees C and 5% CO2 with 95% humidity. The PDC lines were cultured according to standard operating procedures established by the NCI PDMR. All PDCs were thawed and cultured in Matrigel-coated flasks prepared with a working solution of 1X Ham's F-12 nutrient mix, without supplementation (Invitrogen, Waltham, MA, cat. 11765054), 100 U/mL penicillin-streptomycin (Invitrogen, cat. 15140122), and 2.5% Matrigel (Corning Inc., Corning, NY, cat. 354248) for the first three passages. The 362531-283-R-J2-PDC and 782815-120-R-J1-PDC lines were cultured in 6C/Colon 1B media, which includes advanced DMEM/F-12 (Thermo Fisher Scientific, cat. 12634028), 10 mM HEPES (Thermo Fisher Scientific, cat. 15630080), 1X GlutaMAX supplement (Thermo Fisher Scientific, cat. 35050061), 0.1 mg/mL primocin (InvivoGen, San Diego, CA, cat. ant-pm-2), 10% defined fetal bovine serum, heat inactivated (HyClone Laboratories Inc., Logan, UT, cat. SH30070.03HI), 50% L-WRN conditioned media (ATCC, cat. CRL-3276), 1.25 mM N-Acetyl-L-cysteine (Sigma-Aldrich, cat. A9165), 10 mM nicotinamide (Sigma-Aldrich, cat. N0636), 1X B-27 supplement (Thermo Fisher Scientific, cat. 17504044), 1X N-2 supplement (Thermo Fisher Scientific, cat. 17502048), 50 ng/mL human EGF (Thermo Fisher Scientific, cat. PHG0311), and 10 microM Y-27632 dihydrochloride (Tocris Bioscience, cat. 1254). The K12877-001-R-J1-PDC line was cultured in 6I media, which includes all 6C/Colon 1B media plus 10 ng/mL human FGF-10 (PeproTech, cat. 100-26), 1 ng/mL human FGF-2 (PeproTech, cat. 100-18B), 1 µM prostaglandin E2 (Tocris Bioscience, cat. 2296), […] hydrocortisone (Sigma-Aldrich, cat. H4001), and […] bovine insulin (Sigma-Aldrich, cat. I6634). The K86415-001-R-J1-PDC line was cultured in 6D media, which includes all 6C/Colon 1B media components minus the L-WRN conditioned media. The 485176-168-R4-J1-PDC was cultured in PANC media, which includes all 6C/Colon 1B media plus 100 ng/mL human FGF-10 (PeproTech, cat. 100-26), 500 nM SB-431542 (Selleckchem, cat. S1067), and 10 nM gastrin (Tocris Bioscience, cat. 3006). […]

[1] = second compound 0.0316 µM, first compound 0.00316 µM
[2] = second compound 0.0316 µM, first compound 0.01 µM
[3] = second compound 0.0316 µM, first compound 0.0316 µM
[4] = second compound 0.0316 µM, first compound 0.1 µM
[5] = second compound 0.0316 µM, first compound 0.316 µM
[6] = second compound 0.0316 µM, first compound 1 µM
[7] = second compound 0.1 µM, first compound 0.00316 µM
[8] = second compound 0.1 µM, first compound 0.01 µM
[9] = second compound 0.1 µM, first compound 0.0316 µM
[10] = second compound 0.1 µM, first compound 0.1 µM
[11] = second compound 0.1 µM, first compound 0.316 µM
[12] = second compound 0.1 µM, first compound 1 µM
[13] = second compound 0.316 µM, first compound 0.00316 µM
[14] = second compound 0.316 µM, first compound 0.01 µM
[15] = second compound 0.316 µM, first compound 0.0316 µM
[16] = second compound 0.316 µM, first compound 0.1 µM
[17] = second compound 0.316 µM, first compound 0.316 µM
[18] = second compound 0.316 µM, first compound 1 µM
[19] = second compound 1 µM, first compound 0.00316 µM
[20] = second compound 1 µM, first compound 0.01 µM
[21] = second compound 1 µM, first compound 0.0316 µM
[22] = second compound 1 µM, first compound 0.1 µM
[23] = second compound 1 µM, first compound 0.316 µM
[24] = second compound 1 µM, first compound 1 µM
[25] = second compound 3.16 µM, first compound 0.00316 µM
[26] = second compound 3.16 µM, first compound 0.01 µM
[27] = second compound 3.16 µM, first compound 0.0316 µM
[28] = second compound 3.16 µM, first compound 0.1 µM
[29] = second compound 3.16 µM, first compound 0.316 µM
[30] = second compound 3.16 µM, first compound 1 µM
[31] = second compound 10 µM, first compound 0.00316 µM
[32] = second compound 10 µM, first compound 0.01 µM
[33] = second compound 10 µM, first compound 0.0316 µM
[34] = second compound 10 µM, first compound 0.1 µM
[35] = second compound 10 µM, first compound 0.316 µM
[36] = second compound 10 µM, first compound 1 µM
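Further: spheroids exposed to compound for seven days before viability readout.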

pIC50 (second compound 0.0316 µM): < 6.00
pIC50 (second compound 0.1 µM): < 6.00
pIC50 (second compound 0.316 µM): < 6.00
pIC50 (second compound 1 µM): < 6.00
pIC50 (second compound 3.16 µM): < 6.00
pIC50 (second compound 10 µM): 6.33
SMILES: C=CC(=O)Nc1cc(Nc2nccc(-c3cn(C)c4ccccc34)n2)c(OC)cc1N(C)CCN(C)C + C#Cc1c(F)ccc2cc(O)cc(-c3ncc4c(N5CC6CCC(C5)N6)nc(OCC56CCCN5CC(F)C6)nc4c3F)c12
viability, T/C [1]: 97.1%
viability, T/C [2]: 130%
viability, T/C [3]: 95.5%
viability, T/C [4]: 86.1%
viability, T/C [5]: 84.3%
viability, T/C [6]: 92.3%
viability, T/C [7]: 93.5%
viability, T/C [8]: 125%
viability, T/C [9]: 82.3%
viability, T/C [10]: 68.3%
viability, T/C [11]: 80.2%
viability, T/C [12]: 66.5%
viability, T/C [13]: 86.7%
viability, T/C [14]: 119%
viability, T/C [15]: 85.8%
viability, T/C [16]: 86.2%
viability, T/C [17]: 89.5%
viability, T/C [18]: 95.7%
viability, T/C [19]: 80.2%
viability, T/C [20]: 121%
viability, T/C [21]: 85.3%
viability, T/C [22]: 73.1%
viability, T/C [23]: 89.2%
viability, T/C [24]: 82.5%
viability, T/C [25]: 73.6%
viability, T/C [26]: 91.2%
viability, T/C [27]: 84.9%
viability, T/C [28]: 82.8%
viability, T/C [29]: 67.6%
viability, T/C [30]: 86.4%
viability, T/C [31]: 55.6%
viability, T/C [32]: 62%
viability, T/C [33]: 88.9%
viability, T/C [34]: 65.2%
viability, T/C [35]: 72.9%
viability, T/C [36]: 12.4%

pIC50 (second compound 0.0316 µM): 7.05
pIC50 (second compound 0.1 µM): 7.04
pIC50 (second compound 0.316 µM): 7.15
pIC50 (second compound 1 µM): 7.35
pIC50 (second compound 3.16 µM): 7.15
pIC50 (second compound 10 µM): > 7.50
SMILES: CC(Nc1ccc2c(c1)OCCn1cc(N3C(=O)OCC3C(F)F)nc1-2)C(N)=O (stereo unspecified) + C#Cc1c(F)ccc2cc(O)cc(-c3ncc4c(N5CC6CCC(C5)N6)nc(OCC56CCCN5CC(F)C6)nc4c3F)c12
viability, T/C [3]: 78.3%
viability, T/C [4]: 43.2%
viability, T/C [5]: 37.1%
viability, T/C [6]: 11.6%
viability, T/C (second compound 0.0316 µM, first compound 3.16 µM): 11.7%
viability, T/C (second compound 0.0316 µM, first compound 10 µM): 11.8%
viability, T/C [9]: 80.4%
viability, T/C [10]: 39.4%
viability, T/C [11]: 39.1%
viability, T/C [12]: 19.9%
viability, T/C (second compound 0.1 µM, first compound 3.16 µM): 12.7%
viability, T/C (second compound 0.1 µM, first compound 10 µM): 11.2%
viability, T/C [15]: 71%
viability, T/C [16]: 39.7%
viability, T/C [17]: 26.8%
viability, T/C [18]: 16.9%
viability, T/C (second compound 0.316 µM, first compound 3.16 µM): 15.3%
viability, T/C (second compound 0.316 µM, first compound 10 µM): 13.7%
viability, T/C [21]: 51.8%
viability, T/C [22]: 45.9%
viability, T/C [23]: 25.5%
viability, T/C [24]: 12.4%
viability, T/C (second compound 1 µM, first compound 3.16 µM): 16.2%
viability, T/C (second compound 1 µM, first compound 10 µM): 10.6%
viability, T/C [27]: 63.5%
viability, T/C [28]: 42.7%
viability, T/C [29]: 30.5%
viability, T/C [30]: 12.9%
viability, T/C (second compound 3.16 µM, first compound 3.16 µM): 12.8%
viability, T/C (second compound 3.16 µM, first compound 10 µM): 13.5%
viability, T/C [33]: 35.9%
viability, T/C [34]: 28.3%
viability, T/C [35]: 9.51%
viability, T/C [36]: 4.69%
viability, T/C (second compound 10 µM, first compound 3.16 µM): 5.91%
viability, T/C (second compound 10 µM, first compound 10 µM): 2.82%

pIC50 (second compound 0.0316 µM): > 8.50
pIC50 (second compound 0.1 µM): > 8.50
pIC50 (second compound 0.316 µM): > 8.50
pIC50 (second compound 1 µM): > 8.50
pIC50 (second compound 3.16 µM): > 8.50
pIC50 (second compound 10 µM): > 8.50
SMILES: O=C(c1ccc(F)c(F)c1Nc1ccc(I)cc1F)N1CC(O)([C@@H]2CCCCN2)C1 + C#Cc1c(F)ccc2cc(O)cc(-c3ncc4c(N5CC6CCC(C5)N6)nc(OCC56CCCN5CC(F)C6)nc4c3F)c12
viability, T/C [1]: 47.9%
viability, T/C [2]: 37.5%
viability, T/C [3]: 36.9%
viability, T/C [4]: 15.6%
viability, T/C [5]: 7.05%
viability, T/C [6]: 5.82%
viability, T/C [7]: 44.8%
viability, T/C [8]: 39.8%
viability, T/C [9]: 29.3%
viability, T/C [10]: 14.2%
viability, T/C [11]: 7.41%
viability, T/C [12]: 4.83%
viability, T/C [13]: 46%
viability, T/C [14]: 32.6%
viability, T/C [15]: 24.1%
viability, T/C [16]: 13.3%
viability, T/C [17]: 5.32%
viability, T/C [18]: 5.62%
viability, T/C [19]: 38.6%
viability, T/C [20]: 31.1%
viability, T/C [21]: 21.9%
viability, T/C [22]: 10.9%
viability, T/C [23]: 5.57%
viability, T/C [24]: 4.89%
viability, T/C [25]: 36.8%
viability, T/C [26]: 22.8%
viability, T/C [27]: 16%
viability, T/C [28]: 8.92%
viability, T/C [29]: 6.05%
viability, T/C [30]: 4.36%
viability, T/C [31]: 16.8%
viability, T/C [32]: 7.65%
viability, T/C [33]: 3.23%
viability, T/C [34]: 4.71%
viability, T/C [35]: 2.14%
viability, T/C [36]: 0.87%
